Assay results as given in PMC9232501, “Results of the phase I CCTG IND.231 trial of CX-5461 in patients with advanced solid tumors enriched for DNA-repair deficiencies” (Nature Communications, 2022).
“And” between values parts separate entries of the source, which are not always exact repeats. Equal entries are not always repeated.

Columns and labels:
[1] = tested on: BRCA2 and BRCA1-deficient tumor models; settings: in vitro and in vivo, independently of RNA polymerase 1 inhibition; cited from earlier work
advanced solid tumors = assay: Efficacy assessment by RECIST 1.1 (best response, ORR, DCR, duration of response); assay type: in vivo, human; set-up: partial_response_date (time at which PR was documented) / bestchange (best change of target lesions, Figure 3): unit not given here; settings: for bestchange (best change of target lesions, Figure 3): one value per patient; for time_on_study: individual patients
Description: Computed tomography of chest, abdomen, and pelvis was performed at baseline and every 8 weeks and as clinically indicated. All patients who had at least one post-baseline scan were included in efficacy analyses; patients with the non-target disease only were assessed for non-CR/non-PD and PD. Patients were evaluated for CR, PR, SD, or PD as defined by RECIST 1.1[23]. The objective response rate (ORR = CR+PR) and disease control rate (DCR = CR + PR + SD ≥ 6 months) are reported. Duration of response was defined as the time from when CR or PR was first documented until the first date that progressive disease was objectively documented or the time of the last disease assessment.

U2OS cells = assay: CPD (cyclobutane pyrimidine dimer) immunofluorescence after UVA 125 mJ/cm^2; assay type: cell-based, Human; settings: 1 h compound exposure
Description: Fig. 5 Comparison of G4 ligand photosensitization. […] Vertical axis, fractional survival, horizontal axis log10 drug concentration (M) (f) Representative images of CPD immunofluorescent staining under UV and drug treatment conditions for U2OS cells, quantified from biological duplicates in (g) (h) Scale bar = 100um. U2OS cells were treated with drug or vehicle control, then immediately irradiated with UVA 125 mJ/cm^2; and fixed 1 h later for immunofluorescence staining with CPD antibody. g Distribution of mean intensity of CPD level per cell (total n = in labels), with two biological repeats per condition. Vertical axis, mean CPD intensity per cell, horizontal axis, conditions (h) WT or KO XPA HAP1 cells assayed for cytotoxicity. Vertical axis, fractional survival (WST-1 assay). The horizontal axis, log10 drug concentration (M). Error bars = standard deviation of the mean. Three biological repeats per condition.
Human epidermal keratinocytes (HEKa) cells were sourced from Thermo Fisher Scientific, and were grown in EpiLife™ Medium with HKGS. HAP WT and XPA knockout cell lines (Horizon Discovery) were cultured in IMDM, 10% FCS. Human HCT116 cells, U2OS cells (ATCC) were grown in McCoy’s 5 A medium with 10% FBS and L-glutamine. All cell lines are mycoplasma free and have been authenticated by STR or SNP profiling. […]

[2] = BRCA1/2, PALB2 or TP53 germline or somatic mutations
[3] = BRCA1/2 or PALB2 germline or somatic mutations
[4] = dose_level 2, Breast, patient 400006
[5] = dose_level 4, Ovarian, patient 400035
[6] = dose_level 8, Breast, patient 400012
[7] = dose_level 9, Breast, patient 400030

Cc1cnc(CNC(=O)c2c(=O)c3ccc(N4CCCN(C)CC4)nc3n3c2sc2ccccc23)cn1 [CX-5461]
synthetic lethality [1]: synthetically lethal | patients with confirmed PR (advanced solid tumors; 3 breast, 1 ovarian, all with germline DNA-repair abnormalities): Four | overall DCR (CR + PR + SD ≥ 6 months) (advanced solid tumors; 8/40, 95% CI: 9.1–35.7%): 20% | Best Response Complete Response (CR), N patients (advanced solid tumors; All treated patients N=40): 0 | Best Response Partial Response (PR), N patients (advanced solid tumors; All treated patients N=40): 4 | Best Response Progressive Disease (PD), N patients (advanced solid tumors; All treated patients N=40): 21 | Best Response Stable Disease (SD), N patients (advanced solid tumors; All treated patients N=40): 11 | Response Duration Median (range), SD (advanced solid tumors; All treated patients N=40, range 2.3-10.9): 3.6 Mo. | Response Duration Median (range), PR (advanced solid tumors; All treated patients N=40, range 5.5-8.2): 6.5 Mo. | Best Response Partial Response (PR), N patients (advanced solid tumors; [2]): 4 | Best Response Progressive Disease (PD), N patients (advanced solid tumors; [2]): 15 | Best Response Stable Disease (SD), N patients (advanced solid tumors; [2]): 7 | Response Duration Median (range), PR (advanced solid tumors; [2]): 6.5 (5.5-8.2) Mo. | Response Duration Median (range), SD (advanced solid tumors; [2]): 3.5 (3-9.2) Mo. | Best Response Partial Response (PR), N patients (advanced solid tumors; [3]): 3 | Best Response Progressive Disease (PD), N patients (advanced solid tumors; [3]): 12 | Best Response Stable Disease (SD), N patients (advanced solid tumors; [3]): 7 | Response Duration Median (range), PR (advanced solid tumors; [3]): 6.3 (5.5-6.8) Mo. | Response Duration Median (range), SD (advanced solid tumors; [3]): 3.5 (3-9.2) Mo. | bestchange (best change of target lesions, Figure 3) (advanced solid tumors; DOSE_LEV 0): 27.9 and 20.3 and 4.4 | bestchange (best change of target lesions, Figure 3) (advanced solid tumors; DOSE_LEV 1): 13.1 and 6 and 1.4 and -27.5 | bestchange (best change of target lesions, Figure 3) (advanced solid tumors; DOSE_LEV 2): -66.7 and 51.2 and 47.1 | bestchange (best change of target lesions, Figure 3) (advanced solid tumors; DOSE_LEV 3): 18.9 and 4 and 74.8 | bestchange (best change of target lesions, Figure 3) (advanced solid tumors; DOSE_LEV 4): -43.4 and 50.8 and 41.7 | bestchange (best change of target lesions, Figure 3) (advanced solid tumors; DOSE_LEV 5): 17.1 and 6.4 | bestchange (best change of target lesions, Figure 3) (advanced solid tumors; DOSE_LEV 6): -12.9 and -19.4 and 54 | bestchange (best change of target lesions, Figure 3) (advanced solid tumors; DOSE_LEV 7): 36.2 and 20.5 and 9.7 | bestchange (best change of target lesions, Figure 3) (advanced solid tumors; DOSE_LEV 8): 23.1 and 10.8 and 5.6 and 0 and -62.5 and 46.6 | bestchange (best change of target lesions, Figure 3) (advanced solid tumors; DOSE_LEV 9): 7.7 and -50 | Best Response Progressive Disease (PD), N patients (advanced solid tumors; Prior PARP Inhibitor N=8): 6 | Best Response Stable Disease (SD), N patients (advanced solid tumors; Prior PARP Inhibitor N=8): 1 | Best Response Partial Response (PR), N patients (advanced solid tumors; Prior Platinum N=32): 2 | Best Response Progressive Disease (PD), N patients (advanced solid tumors; Prior Platinum N=32): 18 | Best Response Stable Disease (SD), N patients (advanced solid tumors; Prior Platinum N=32): 8 | Responses observed, share of patients (advanced solid tumors; abstract, primarily in patients with defective homologous recombination): 14% | ORR (advanced solid tumors; all treated, 4/40, 95% CI: 2.8–23.7): 10% | ORR (advanced solid tumors; breast, ovarian, pancreas tumor types, 4/29, 95% CI: 3.9–31.7%): 14% | time_on_study (advanced solid tumors; dose_level 0 (50 mg/m^2 Day 1 & 8)): 4.5667 months and 3.9425 months and 2.037 months and 1.8398 months | time_on_study (advanced solid tumors; dose_level 1 (100 mg/m^2 Day 1 & 8)): 1.1499 months and 5.5195 months and 3.2526 months | time_on_study (advanced solid tumors; dose_level 2 (150 mg/m^2 Day 1 & 8)): 10.4476 months and 1.1828 months and 0.7228 months and 0.6899 months | partial_response_date (time at which PR was documented) (advanced solid tumors; [4]): 1.643 | partial_response_duration (advanced solid tumors; [4]): 6.275 months | time_on_study (advanced solid tumors; dose_level 3 (200 mg/m^2 Day 1 & 8)): 7.3265 months and 1.1828 months and 0.6899 months and 0.46 months | time_on_study (advanced solid tumors; dose_level 4 (250 mg/m^2 Day 1 & 8)): 14.7187 months and 1.8398 months and 1.807 months | partial_response_date (time at which PR was documented) (advanced solid tumors; [5]): 6.407 | partial_response_duration (advanced solid tumors; [5]): 8.246 months | time_on_study (advanced solid tumors; dose_level 5 (325 mg/m^2 Day 1 & 8)): 1.2485 months and 1.1828 months and 1.0185 months | time_on_study (advanced solid tumors; dose_level 6 (475 mg/m^2 Day 1 & 8)): 11.039 months and 3.8768 months and 1.8398 months | time_on_study (advanced solid tumors; dose_level 7 (325 mg/m^2 Day 1, 8 & 15)): 1.8398 months and 1.807 months and 0.8871 months | time_on_study (advanced solid tumors; dose_level 8 (475 mg/m^2 Day 1, 8 & 15)): 10.809 months and 7.3922 months and 2.1355 months and 2.0698 months and 0.9199 months | partial_response_date (time at which PR was documented) (advanced solid tumors; [6]): 3.45 | partial_response_duration (advanced solid tumors; [6]): 6.801 months | time_on_study (advanced solid tumors; dose_level 9 (650 mg/m^2 Day 1, 8 & 15)): 7.8193 months and 2.9897 months and 1.6099 months and 1.577 months and 1.0185 months | partial_response_date (time at which PR was documented) (advanced solid tumors; [7]): 1.708 | partial_response_duration (advanced solid tumors; [7]): 5.487 months | objective responses in patients who had received prior platinum (advanced solid tumors; in vivo): 2/32 | patients with durable SD (≥6 months) (advanced solid tumors; of 11 SD): 4 | Objective response (all PR), patients (advanced solid tumors; of 32 evaluable patients, best response in target lesions): 4 | shrinkage in target lesions (advanced solid tumors; one patient, gBRCA2-related pancreatic cancer, best response SD): 13% | best response (advanced solid tumors; one patient, metastatic breast cancer, germline PALB2 frameshift mutation): confirmed PR | potentiation of CPD formation by UVA (U2OS cells): strong potentiation
